Series [1] is described as follows: Mouse Pharmacokinetics Studies (50 mg/kg oral gavage, plasma LC-MS/MS). It counts as in vivo. Particulars: Male C57BL/6 mice, non-fasted; for AUC(0-t) / Cmax / Tmax: mouse; for Tmax: read-out: PK: Tmax. The protocol: Compounds were formulated in 5% DMSO, 5% Solutol, and 90% PBS without Ca and Mg (pH 7.4) at a concentration of 5 mg/mL. Male C57BL/6 mice (n=3/compound) were administered a 50 mg/kg dose of each compound by oral gavage under a non-fasted condition. Blood samples were collected via the saphenous vein onto K2-EDTA at 0.25, 0.5, 1, 2, 4, 8 and 24 hours after dosing, and plasma was prepared and stored at −80° C. until analysis. Plasma sample preparation for analysis was done by protein precipitation using acetonitrile (including Verapamil as an internal standard) followed by centrifugation. Compound concentrations were determined in extracted plasma using LC-MS/MS relative to a 12-point standard curve covering the 1 to 4000 nM range. Non-compartmental analysis using Phoenix WinNonlin was used to estimate pharmacokinetic parameters including area under the curve, clearance, and half-life. The administered dose was confirmed by analysis of residual dosing material by UPLC-UV relative to a single point calibration sample.

For a further series, the target named is T1, human MRGPRX2 (Homo sapiens, UniProt Q96LB1).
T1 construct: expressed in transfected cells
T1 sequence (Q96LB1 1-330): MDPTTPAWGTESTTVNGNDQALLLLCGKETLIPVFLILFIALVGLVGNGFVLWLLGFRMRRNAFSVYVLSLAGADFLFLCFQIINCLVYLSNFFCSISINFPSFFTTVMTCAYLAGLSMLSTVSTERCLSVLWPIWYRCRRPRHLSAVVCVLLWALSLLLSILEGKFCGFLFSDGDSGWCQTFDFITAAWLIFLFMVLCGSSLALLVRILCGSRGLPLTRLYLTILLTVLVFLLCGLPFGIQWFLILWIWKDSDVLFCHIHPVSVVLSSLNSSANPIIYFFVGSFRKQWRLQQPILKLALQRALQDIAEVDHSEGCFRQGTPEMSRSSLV
The series is described as follows: MRGPRX2 activity: IP-One HTRF antagonist assay in CHO cells versus Cortistatin-14. It counts as cell-based. Particulars: CHO cells stably expressing human MRGPRX2; versus 0.3 uM Cortistatin-14 agonist; IP-1 HTRF. The method, then: CHO cells stably transfected to express human MRGPRX2 were maintained in an incubator at 37° C. with 5% CO2 and grown in F12 (HAM) media with 10% fetal bovine serum (FBS), 1% Glutamax, 1% penicillin/streptomycin, 800 μg/mL Geneticin (G418), and 300 μg/mL Hygromycin B.
Cells were plated in a 384-well assay plate at 20,000 cells per well in 12 μL of Opti-MEM and kept in an incubator overnight. On the day of the assay, compounds solubilized at 10 mM in DMSO were added as a 10-point curve (30 uM final top concentration with 1:3 serial dilutions) using a Tecan D300E digital dispenser. Agonists were diluted in assay buffer (final concentrations of 5.7 mM Tris-HCl, 43 mM NaCl, 50 mM LiCl, pH=8) and 2 μL of the agonist Cortistatin-14 (CPC Scientific, catalog CORT-002) are added to each well. Final concentrations of agonists were 0.3 μM Cortistatin. Final concentrations of DMSO were kept consistent across the plate. Plates were incubated in the dark for 1 h at 37° C. and then for 1 h at room temperature. IP-1 standards and HTRF detection reagents were added according to the IP-One-Gq Kit purchased from Cisbio (part number 62IPAPEJ) and incubated in the dark for 1 h at room temperature. The plate was read on a Molecular Devices SpectraMax iD5 plate reader. The HTRF ratio was calculated from the raw data and graphed using GraphPad Prism to calculate an IC50 value for each compound.
The activity ranges are denoted as follows: “+++++” denotes antagonist activity <100 nM; “++++” denotes antagonist activity between 100 and 500 nM; “+++” denotes activity between 501 and 1000 nM; “[…]” denotes activity between 1001 and 2500 nM; and “+” denotes activity >2500 nM
(Time-resolved FRET reads energy transfer from a long-lived donor to a nearby acceptor.)

Molecules are shown by their SMILES.

Turning to `O=C(N[C@@H]1CCC[C@H](Nc2cc(C(F)(F)F)nc3ccc(Cl)cc23)C1)c1cnn(C(F)F)c1` [Example 4-399], in series [1], the “AUC 0-24” value was determined as 230 µM·h, the AUC(0-t) worked out at 230 µM·h, the highest level (Cmax) was 19 µM and the Tmax is 3.7 h.
At human MRGPRX2, `Cc1nn(C(C)C)cc1C(=O)N[C@@H]1CCC[C@H](Nc2cc(C(F)(F)F)nc3ccc(Cl)cc23)C1` [Example 4-402] had a half-inhibitory concentration (IC50) of less than 0.1 µM. Besides, in series [1], the “AUC 0-24” value is 150 µM·h, the AUC(0-t) was determined as 150 µM·h, the highest level (Cmax) was 14 µM and the Tmax is 2 h.
For `COc1ccc(C(=O)N[C@@H]2CCC[C@H](Nc3cc(C(F)(F)F)nc4ccc(F)cc34)C2)cc1` [Example 1-4], in series [1], the “AUC 0-24” value is 120 µM·h, the area under the curve AUC(0-t) came out at 120 µM·h, the concentration peaked (Cmax) at 8.6 µM and the Tmax was found to be 6.7 h.
With `Cc1ccc(C(=O)N[C@@H]2CCC[C@H](Nc3cc(C(F)(F)F)nc4ccc(Cl)cc34)C2)cn1` [Example 4-403], at human MRGPRX2, the half-inhibitory concentration (IC50) was less than 0.1 µM. For the same compound, in series [1], the “AUC 0-24” value was found to be 130 µM·h, the exposure AUC(0-t) turned out to be 130 µM·h, the peak level (Cmax) was 15 µM and the Tmax was 2.3 h.
In the case of `CCn1cc(C(=O)N[C@@H]2CCC[C@H](Nc3cc(C(F)(F)F)nc4ccc(Cl)cc34)C2)cn1` [Example 4-366], in series [1], the “AUC 0-24” value came out at 290 µM·h, the area under the curve AUC(0-t) turned out to be 290 µM·h, the concentration peaked (Cmax) at 44 µM and the Tmax was determined as 1 h.
In turn, `Nc1ccc(C(=O)N[C@@H]2CCC[C@H](Nc3cc(C(F)(F)F)nc4ccc(Cl)cc34)C2)cn1` [Example 3-19] showed an IC50 at human MRGPRX2 of less than 0.1 µM. For the same compound, in series [1], the “AUC 0-24” value amounted to 220 µM·h, the exposure AUC(0-t) stood at 220 µM·h, the highest level (Cmax) was 46 µM and the time of peak concentration (Tmax) was 0.83 h.
On to `Cc1nc2c(s1)CN(C(=O)N[C@@H]1CCC[C@H](Nc3cc(C(F)(F)F)nc4ccc(Cl)cc34)C1)CC2` [Example 46, N-((1R,3S)-3-((6-chloro-2-(trifluoromethyl)quinolin-4-yl)amino)cyclohexyl)-2-methyl-6,7-dihydrothiazolo[5,4-c]pyridine-5(4H)-carboxamide], for which the IC50 on human MRGPRX2 was less than 0.1 µM.
For the compound `Cc1nn(C)cc1C(=O)N[C@@H]1CCC[C@H](Nc2cc(C(F)(F)F)nc3ccc(Cl)cc23)C1` [Example 4-401], the IC50 at human MRGPRX2 was less than 0.1 µM.
`Nc1ncccc1C(=O)N[C@@H]1CCC[C@H](Nc2cc(C(F)(F)F)nc3ccc(Cl)cc23)C1` [Example 4-409] registered a half-inhibitory concentration (IC50) at human MRGPRX2 of less than 0.1 µM. Also, in series [1], the “AUC 0-24” value amounted to 280 µM·h, the exposure AUC(0-t) stood at 280 µM·h, the highest concentration (Cmax) came to 25 µM and the time of peak concentration (Tmax) was 2.7 h.
As for `O=C(CCc1ccc(Cl)c(F)c1)N[C@@H]1CCC[C@H](Nc2cc(C(F)(F)F)nc3ccccc23)C1` (racemic) [Example 4-82], the IC50 at human MRGPRX2 is more than 2.5 µM.
Take `O=C(N[C@@H]1CCC[C@H](Nc2cc(C(F)(F)F)nc3ccc(Cl)cc23)C1)c1cnn(C2COC2)c1` [Example 4-407]: the half-maximal inhibitory concentration (IC50) on human MRGPRX2 is less than 0.1 µM.
For `O=C(N[C@@H]1CCC[C@H](Nc2cc(C(F)(F)F)nc3ccccc23)C1)c1ccccc1Oc1ccccc1` (racemic) [Example 4-113], the IC50 on human MRGPRX2 was more than 2.5 µM.
Consider `CC(C)(C)OC(=O)N1CC[C@@H](n2cc(C(=O)N[C@@H]3CCC[C@H](Nc4cc(C(F)(F)F)nc5ccc(Cl)cc45)C3)cn2)C1` [Example 40, tert-butyl (R)-3-(4-(((1R,3S)-3-((6-chloro-2-(trifluoromethyl)quinolin-4-yl)amino)cyclohexyl)carbamoyl)-1H-pyrazol-1-yl)pyrrolidine-1-carboxylate], for which the concentration for half-maximal inhibition (IC50) on human MRGPRX2 was less than 0.1 µM.
Consider `CC(C)S(=O)(=O)Nc1cccc(C(=O)N[C@@H]2CCC[C@H](Nc3cc(C(F)(F)F)nc4ccc(Cl)cc34)C2)c1` [Example 4-228], for which the half-inhibitory concentration (IC50) on human MRGPRX2 was less than 0.1 µM.
Compound `O=C(N[C@@H]1CCC[C@H](Nc2cc(C(F)(F)F)nc3ccc(Cl)cc23)C1)c1ccon1` [Example 4-425] gave an IC50 at human MRGPRX2 of less than 0.1 µM.
The same measure, in the same setting: for `O=C(N[C@@H]1CCC[C@H](Nc2cc(C(F)(F)F)nc3ccc(Cl)cc23)C1)c1cn[nH]c1C1CC1` [Example 4-405] the value was less than 0.1 µM; for `Cc1cn(C)cc1C(=O)N[C@@H]1CCC[C@H](Nc2cc(C(F)(F)F)nc3ccc(Cl)cc23)C1` [Example 4-417], less than 0.1 µM; for `Cc1cn2cc(C(=O)N[C@@H]3CCC[C@H](Nc4cc(C(F)(F)F)nc5ccc(Cl)cc45)C3)ccc2n1` [Example 4-265], less than 0.1 µM.
`Cc1c(C(=O)N[C@@H]2CCC[C@H](Nc3cc(C(F)(F)F)nc4ccc(Cl)cc34)C2)cnn1C1CCNCC1` [Example 19, N-((1R,3S)-3-((6-chloro-2-(trifluoromethyl)quinolin-4-yl)amino)cyclohexyl)-5-methyl-1-(piperidin-4-yl)-1H-pyrazole-4-carboxamide] came in with an IC50 on human MRGPRX2 of less than 0.1 µM.
As for `N#Cc1nn(CCF)cc1C(=O)N[C@@H]1CCC[C@H](Nc2cc(C(F)(F)F)nc3ccc(Cl)cc23)C1` [Example 5-31], the IC50 at human MRGPRX2 was less than 0.1 µM.
For `O=C(N[C@@H]1CCC[C@H](Nc2cc(C(F)(F)F)nc3ccc(F)cc23)C1)c1cccc(O)c1` [Example 4-284], on human MRGPRX2, the IC50 was less than 0.1 µM.
Regarding `O=C(N[C@@H]1CCC[C@H](Nc2cc(C(F)(F)F)nc3ccc(Cl)cc23)C1)c1c[nH]cc1C(F)(F)F` [Example 4-394], on human MRGPRX2, the IC50 was less than 0.1 µM.
Consider `O=C(N[C@@H]1CCC[C@H](Nc2cc(C(F)(F)F)nc3ccc(Cl)cc23)C1)c1ccn2cnnc2c1` [Example 4-397], for which, on human MRGPRX2, the half-maximal inhibitory concentration (IC50) was less than 0.1 µM.

A word on the AUC(0-t): it is the area under the concentration-time curve up to a stated or last time point. A word on the Cmax: it is the maximum level reached in the sampled fluid or tissue. The Tmax is the time at which the peak concentration occurs. Broadly, the IC50 is the midpoint of a concentration-inhibition curve. Lower therefore signals higher potency.

(Values after patent US12129244B2, “Modulators of Mas-related G-protein receptor X2 and related products and methods” (Escient Pharmaceuticals, Inc., priority 2022, dated 2024).)
